The results in this text go back to patent US10457689B2, “Ammonium derivatives, a process for their preparation and pharmaceutical compositions containing them” (LES LABORATOIRES SERVIER, priority 2016, dated 2019).

Each structure is given as a SMILES string. Converted amounts (≈) assume the structure as drawn. Structures can show the parent of a compound that is named as a salt. Where only a bound is given, the exact number is not on record here.

One data set is described as follows: Solubility test Method 1. The conditions noted are these: Method 1: 30% propylene glycol in water, shaked 72 hours at room temperature. Type of data set: physicochemical. The method, then: Sample solutions (around 16.7 mg/ml) in propylene glycol were diluted with water (30% propylene glycol). Then, samples were shaked for 72 hours at room temperature. After shaking period, samples were centrifuged, then the liquid phase was filtered and analyzed using HPLC coupled to UV detection. To determine the actual concentration a 5-point calibration curve was established.

The target in a further data set is Mcl-1 protein (Homo sapiens, UniProt Q07820). As to the kind of experiment: Inhibition of Mcl-1 by the fluorescence polarisation technique. The data set is classed as binding. Particulars: fluorescence polarisation test; read-out: IC50 (M) Mcl-LFP. The method, then: The relative, binding potency of each compound was determined via Fluorescence Polarisation (FP). The method utilised a Fluorescein labelled ligand (Fluorescein-βAla-Ahx-A-REIGAQLRRMADDLNAQY-OH; mw 2,765) which binds to the Mcl-1 protein (such that Mcl-1 corresponds to the UniProtKB® primary accession number: Q07820) leading to an increased anisotropy measured in milli-polarisation (mP) units using a reader. The addition of a compound which binds competitively to the same site as the ligand will result in a greater proportion of unbound ligand in the system indicated by a decrease in mP units.
An 11 point serial dilution of each compound was prepared in DMSO and 2 μl transferred into flat bottomed, low binding, 384-well plate (final DMSO concentration 5%), 38 μl of buffer (10 mM 4-(2-hydroxyethyl)-1-piperazineethanesolfonic acid [HEPES], 150 mM NaCl, 0.05% Tween 20, pH 7.4), containing the Fluorescein labelled ligand (final concentration 1 nM) and Mcl-1 protein (final concentration 5 nM) was then added.
Assay plates were incubated ˜2 hours at room temperature before FP was measured on a […] Synergy2 reader (Ex. 528 nm, Em. 640 nm, Cut off 510 nm) and mP units calculated. The binding of increasing doses of test compound was expressed as a percentage reduction in mP compared to a window established between ‘5% DMSO only’ and ‘100% inhibition’ controls. 11-point dose response curves were plotted with XL-Fit software using a 4-Parameter Logistic Model (Sigmoidal Dose-Response Model) and the inhibitory concentrations that gave a 50% reduction in mP (IC50) were determined.
Background: Polarisation of emitted light reports the rotation of a fluorescent probe.

Data set [1] deals with H929 multiple myeloma tumour line. As to the kind of experiment: In vitro cytotoxicity (MTT). The conditions noted are these: 48 hours exposure. The data set is classed as cell-based. The method, then:
The cytotoxicity studies were carried out on the H929 multiple myeloma tumour line.
The cells are distributed onto microplates and exposed to the test compound for 48 hours.
The cell viability is then quantified by a colorimetric assay, the Microculture Tetrazolium Assay (Carmichael et al. Cancer Res. 1987, 47, 936-942).

A further data set in a line: Solubility test Method 2. Type of data set: physicochemical. The conditions noted are these: Method 2: aqueous phosphate buffer 67.7 mM, pH 7.4, room temperature. The method, then:
Samples (40 mg/mL) were diluted in aqueous phosphate buffer (67.7 mM, with pH adjusted at 7.4) used for in vivo studies. Samples were shaked at room temperature, then filtered. The solubilized fraction was quantified by LC-MS-MS analysis.

Chain of Mcl-1 protein (Q07820 whole entry): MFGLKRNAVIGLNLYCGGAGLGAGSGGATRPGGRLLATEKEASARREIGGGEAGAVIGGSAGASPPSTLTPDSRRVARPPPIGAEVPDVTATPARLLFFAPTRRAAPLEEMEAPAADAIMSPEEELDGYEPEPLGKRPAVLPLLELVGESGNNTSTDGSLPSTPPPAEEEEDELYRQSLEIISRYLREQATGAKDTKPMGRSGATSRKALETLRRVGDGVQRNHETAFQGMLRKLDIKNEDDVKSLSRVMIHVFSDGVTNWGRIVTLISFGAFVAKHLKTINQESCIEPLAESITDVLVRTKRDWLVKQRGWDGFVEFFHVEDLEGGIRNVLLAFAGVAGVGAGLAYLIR

Usually solubility stands for how much of the substance goes into solution per volume. Take `COc1ccccc1-c1nccc(COc2ccccc2C[C@@H](Oc2ncnc3sc(-c4ccc(F)cc4)c(-c4ccc(OCCN5CCN(C)CC5)c(Cl)c4C)c23)C(=O)O)n1` [(2R)-2-{[(5Sa)-5-{3-chloro-2-methyl-4-[2-(4-methylpiperazin-1-yl)ethoxy]phenyl}-6-(4-fluorophenyl)thieno[2,3-d]pyrimidin-4-yl]oxy}-3-(2-{[2-(2-methoxyphenyl)pyrimidin-4-yl]methoxy}phenyl)propanoic acid, reference compound]: the solubility in “Solubility test Method 1” worked out at 63.3 µM (≈ 55.4 µg/mL).

Broadly, the IC50 is the midpoint of a concentration-inhibition curve. Regarding `COc1ccccc1-c1nccc(COc2ccccc2C[C@@H](Oc2ncnc3sc(-c4ccc(F)cc4)c(-c4ccc(OCCN5CC[N+](C)(COP(=O)([O-])O)CC5)c(Cl)c4C)c23)C(=O)O)n1` [Example 1, {4-[2-(4-{(5Sa)-4-[(1R)-1-carboxy-2-(2-{[2-(2-methoxyphenyl)pyrimidin-4-yl]methoxy}phenyl)ethoxy]-6-(4-fluorophenyl)thieno[2,3-d]pyrimidin-5-yl}-2-chloro-3-methylphenoxy)ethyl]-1-methylpiperazin-1-ium-1-yl}methyl hydrogen phosphate], the IC50 at Mcl-1 protein was 1.03e-09 M; in data set [1] (H929 cells) it was 28.4 nM. In addition, the solubility in the data set “Solubility test Method 1” is at least 4907 µM.

On to `COc1ccccc1-c1nccc(COc2ccccc2CC(Oc2ncnc3sc(-c4ccc(F)cc4)c(-c4ccc(OCC[N+](C)(C)COP(=O)([O-])O)c(Cl)c4C)c23)C(=O)O)n1` [Example 11, {4-[2-(4-{(5Sa)-4-[(1R)-1-carboxy-2-(2-{[2-(2-methoxyphenyl)pyrimidin-4-yl]methoxy}phenyl)ethoxy]-6-(4-fluorophenyl)thieno[2,3-d]pyrimidin-5-yl}-2-chloro-3-methylphenoxy)ethyl](dimethyl)ammonio}methyl hydrogen phosphate], for which the IC50 at Mcl-1 protein came out at 1.06e-09 M; in data set [1] (Homo sapiens, NCI-H929, H929 cells) it was 39.3 nM. In the data set “Solubility test Method 2”, the solubility was over 35 mg/mL.

For `CCN(CC)C(=O)OC[N+]1(C)CCN(CCOc2ccc(-c3c(-c4ccc(F)cc4)sc4ncnc(OC(Cc5ccccc5OCc5ccnc(-c6ccccc6OC)n5)C(=O)O)c34)c(Br)c2Cl)CC1` [Example 27, 1-[2-(3-bromo-4-{(5Sa)-4-[(1R)-1-carboxy-2-(2-{[2-(2-methoxyphenyl)pyrimidin-4-yl]methoxy}phenyl)ethoxy]-6-(4-fluorophenyl)thieno[2,3-d]pyrimidin-5-yl}-2-chlorophenoxy)ethyl]-1-{[(diethylcarbamoyl)oxy]methyl}-1-methylpiperazin-1-ium trifluoroacetate], the concentration for half-maximal inhibition (IC50) on Mcl-1 protein stood at 1.17e-09 M; in data set [1] (H929 cells) it was 1900 nM.

For `CCN(CC)C(=O)OC(C)[N+]1(C)CCN(CCOc2ccc(-c3c(-c4ccc(F)cc4)sc4ncnc(OC(Cc5ccccc5OCc5ccnc(-c6ccccc6OC)n5)C(=O)O)c34)c(Br)c2Cl)CC1` [Example 29, 4-[2-(3-bromo-4-{(5Sa)-4-[(1R)-1-carboxy-2-(2-{[2-(2-methoxyphenyl)pyrimidin-4-yl]methoxy}phenyl)ethoxy]-6-(4-fluorophenyl)thieno[2,3-d]pyrimidin-5-yl}-2-chlorophenoxy)ethyl]-1-{1-[(diethylcarbamoyl)oxy]ethyl}-1-methylpiperazin-1-ium trifluoroacetate], the values for the half-inhibitory concentration (IC50) (on Mcl-1 protein; in data set [1] (H929 cells)) were 1.36e-09 M and 136 nM, respectively.

Turning to `COc1ccccc1-c1nccc(COc2ccccc2C[C@@H](Oc2ncnc3sc(-c4ccc(F)cc4)c(-c4ccc(OCCN5CC[N+](C)(Cc6oc(=O)oc6C)CC5)c(Cl)c4Br)c23)C(=O)O)n1` [Example 30, 4-[2-(3-bromo-4-{(5Sa)-4-[(1R)-1-carboxy-2-(2-{[2-(2-methoxyphenyl)pyrimidin-4-yl]methoxy}phenyl)ethoxy]-6-(4-fluorophenyl)thieno[2,3-d]pyrimidin-5-yl}-2-chlorophenoxy)ethyl]-1-methyl-1-[(5-methyl-2-oxo-1,3-dioxol-4-yl)methyl]piperazin-1-ium trifluoroacetate], the IC50 amounted to 9.48e-10 M on Mcl-1 protein and 2.81 nM in data set [1] (H929 cells).

Regarding `COc1ccccc1-c1nccc(COc2ccccc2C[C@@H](Oc2ncnc3sc(-c4ccc(F)cc4)c(-c4ccc(OCCN5CC[N+](C)(COC(=O)C(C)(C)C)CC5)c(Cl)c4Br)c23)C(=O)O)n1` [Example 32, 4-[2-(3-bromo-4-{(5Sa)-4-[(1R)-1-carboxy-2-(2-{[2-(2-methoxyphenyl)pyrimidin-4-yl]methoxy}phenyl)ethoxy]-6-(4-fluorophenyl)thieno[2,3-d]pyrimidin-5-yl}-2-chlorophenoxy)ethyl]-1-{[(2,2-dimethylpropanoyl)oxy]methyl}-1-1-methyl piperazin-1-ium trifluoroacetate], the results for the IC50 (at Mcl-1 protein; in data set [1] (H929 cells)) were 1.77e-09 M and 2.11 nM, respectively.
